Measured values published in article PMC7217877, “N-AS-triggered SPMs are direct regulators of microglia in a model of Alzheimer’s disease” (Nature Communications, 2020).
Values joined by “and” are separate entries in the source; they are usually repeats but may differ in a detail not shown here. Identical values can stand only once.

Tests used:
[1] = test system: APP/PS1 mice; assay: flow cytometry of blood immune cells (Supplementary Fig 5e-i); assay type: in vivo, mouse; set-up: CD11b+ CD115+ Ly6Chi / CD11b+ CD115+ Ly6Clow / CD115low Ly6Chi Ly6Ghi / CD4+ T cell / B220+ B cell: unit not given here
Protocol: Transgenic mouse lines over-expressing the hAPP695swe (APP) and presenilin-1M146V (PS1) mutations were originated from GlaxoSmithKline (Harlow, UK)[32] and maintained as described previously. We purchased 5×FAD mice from Jackson Labs (Stock number. 34840-JAX). Because APP/PS1 and 5xFAD mice show sex differences in disease progression, we used only male mice. To examine possible therapeutic effect of N-AS and aspirin in APP/PS1 mice, the N-AS (30 mg kg^−1, Sigma-Aldrich, 01912) was injected daily s.c. for 8 weeks to 7-months-old APP/PS1 mice until the age of 9 months, and aspirin (2 mg kg^−1, Sigma-Aldrich, A5376)[33] was administrated orally to 7-months-old APP/PS1 mice for 8 weeks. Also, to confirm possible therapeutic efficacy of N-AS in 5×FAD, the N-AS (30 mg kg^−1, Sigma-Aldrich, 01912) was injected daily s.c. for 4 weeks to 3-months-old 5×FAD mice until the age of 4 months. Block randomization method was used to allocate the animals to experimental groups. To eliminate the bias, we were blinded in experimental progress such as data collection and data analysis. Mice were housed at temperature of 22 °C and a 12 h day/12 h night cycle with free access to tap water and food pellets. All protocols were approved by the Kyungpook National University Institutional Animal Care and Use Committee.
Brain microglia polarity and immune cells in brain and blood were analyzed by flow cytometry. Cells from WT, APP/PS1, and APP/PS1 treated with N-AS mice brain were prepared as previously described with minor modifications. Brains of WT, APP/PS1, and APP/PS1 treated with N-AS mice were dissected and immediately transferred in ice-cold HBSS (Gibco). After gentle mincing, the brain was digested in a HBSS solution containing collagenase P (0.2 mg ml^−1, Roche), dispase II (0.8 mg ml^−1, Roche), DNase I (0.01 mg ml^−1, Roche), and collagenase A (0.3 mg ml^−1, Roche) at 37 °C for 1 h under gentle rocking. Digestion was stopped by adding FBS (Gibco) on ice. The supernatants were centrifuged at 250×g for 10 min at 4 °C. The pellet was resuspended in 25% BSA (Gibco)/PBS (Gibco) for myelin removal. Following a centrifugation step at 3000×g for 30 min at 4 °C, the myelin containing supernatant was discarded. The cell pellets were then resuspended in 1 ml of HBSS and filtered through a 40 μm mesh, followed by a washing step in HBSS. The cell pellets were resuspended in 1 ml of red blood cell lysis buffer (BD Biosciences) and incubated at RT for 10 min for lysis of erythrocytes. Subsequently, 2 ml of MACs buffer (Miltenyl Biotec, 130-091-222) was added and centrifuged at 250×g for 10 min at 4 °C. Cells from WT, APP/PS1, and APP/PS1 treated with N-AS mice blood were prepared as previously described with minor modifications. Blood was collected in sodium-heparin tube (BD, 367871) by cardiac puncture. Red blood cells were lysed once at 4 °C for 10 min in 0.15 M NH4Cl ([…] Technologies), washed once with PBS (Gibco), and counted using cell counter (Logos biosystems). […]

[2] = test system: 5×FAD mice; assay: Iba1+ microglia and GFAP+ astrocyte quantification (Supplementary Fig 8d,e); assay type: in vivo, mouse
Protocol: Thioflavin S (Sigma-Aldrich) staining was carried out according to previously described procedures. We used 6E10 (mouse, 1:100, Signet, SIG39300), anti-20G10 (mouse, 1:1000, provided by D. R. Howlett, GlaxoSmithKline, Harlow, Essex, UK) for Aβ42, anti-G30 (rabbit, 1:1000, provided by D. R. Howlett) for Aβ40, SMA (mouse, 1:400, Sigma-Aldrich, A2547), AT8 (mouse, 1:500, Thermo Fisher Scientific, MN1020), Caspase-3 (mouse, 1:200, Novus Biologicals, NB100-56708), ac-S565 (rabbit, 1:100), COX2 (mouse, 1:250, Thermo Fisher Scientific, 35-8200), Iba1 (rabbit, 1:500, Wako, 019-19941 and goat, Abcam, ab5076), NeuN (mouse, 1:500, Millipore, MAB177), GFAP (rabbit, 1:500, Dako, N1506 and chicken, 1:500, Abcam, ab4674), and Lamp1 (mouse, 1:200, Abcam, ab24170). The sections were analyzed with a laser-scanning confocal microscope (FV3000; Olympus) or with a BX51 microscope (Olympus). MetaMorph software (Molecular Devices) was used to quantification. Three-dimensional reconstruction of microglia was recorded and analyzed using IMARIS software (Bitplane)[11]. For the analysis of age-dependent microglial COX2^+ CX3CR1^+ cells in WT and APP/PS1 mice, COX2 (rabbit, 1:100, Abcam, ab15191) and CX3CR1 (mouse, 1:100, BioLegend, 149008) antibody were used and the images were acquired on Alexa 488 and APC Channel with performed using Operetta CLS and Analysis Software 4.5 (Perkin-Elmer). […]

With `CCCCCCCCCCCCC/C=C/[C@@H](O)[C@H](CO)NC(C)=O` [N-AS, N-((2S,3R,E)-1,3-Dihydroxyoctadec-4-en-2-yl)acetamide] the “anti-inflammatory monocytes in blood” value ([1]; N-AS vs vehicle APP/PS1) was “increased anti-inflammatory monocytes”, the “macrophages and pro-inflammatory monocytes in blood” value ([1]; N-AS vs vehicle APP/PS1) was “decreased macrophages and pro-inflammatory monocytes” and the neutrophils in blood ([1]; N-AS vs vehicle APP/PS1) was “neutrophils showed no differences between the groups”. The “Lin- CD11b+ F4/80hi” value ([1]; blood, APP/PS1 + N-AS, sFig 5e) was 0.31 and 0.35 and 0.29 and 0.33 and 0.3, the “CD11b+ CD115+ Ly6Chi” value ([1]; blood, APP/PS1 + N-AS, sFig 5f) was 0.3325 and 0.21 and 0.4 and 0.265 and 0.235 and 0.305 and the “CD11b+ CD115+ Ly6Clow” value ([1]; blood, APP/PS1 + N-AS, sFig 5f) was 0.32 and 0.295 and 0.285 and 0.3075. For the same compound, the “CD115low Ly6Chi Ly6Ghi” value ([1]; blood, APP/PS1 + N-AS, sFig 5g) was 3.9 and 4.5 and 3.15 and 4.65 and 3 and 4.1, the “B220+ B cell” value ([1]; blood, APP/PS1 + N-AS, sFig 5i) was 5.915 and 5.6 and 6.23 and 6.0725 and the “CD4+ T cell” value ([1]; blood, APP/PS1 + N-AS, sFig 5h) was 3.42 and 3.21 and 3.63 and 3.525. The “GFAP+ astrocyte” value ([2]; 5xFAD+N-AS, sFig 8e (sheet untitled)) was 1.617 and 1.112 and 1.516 and 1.497 and 1.364 and 1.314 and the neuroinflammation ([2]; 5×FAD, N-AS 30 mg kg^-1 daily s.c. 4 weeks) was “similarly improved AD pathology of 5×FAD mice”.
